Source: patent publication US20050187188A1, “Methods for the treatment of a traumatic central nervous system injury” (Emory University, priority 2000, published 2005)
Entries after “also recorded” stand apart in the source; their conditions may differ.

How the values were obtained:
[1] = test system: rats with medial frontal cortical contusions; assay: Cerebral edema (brain tissue water content) after medial frontal cortex contusion, Example 1; format: in vivo, rat; details: 4 mg/kg in cyclodextrin, i.p. 1 h and s.c. 6 h post-injury; 2, 24 and 72 hours; compared to vehicle
Protocol: Contusions to the medical frontal cortex (MFC) using a pneumatic impactor device were generated. Animals were anesthetized by injection of Nembutal (50 mg/kg, i.p) and placed in a stereotaxic apparatus, with body core temperature being maintained with a homeothermic heating blanket system. Using aseptic techniques, a midline incision was made in the scalp, and the fascia retracted to expose the cranium. A centered, bilateral craniotomy was made 3 mm anterior to bregma using a 6 mm diameter trephan. After the removal of the bone, the tip of the impactor was moved to AP:3.0; ML:0.0, checked for adequate clearance, retracted to its elevated position and lowered 3.5 mm DV, so it penetrated the cortex 2 mm. The contusion was made at a velocity of 2.25 m/s with a brain contact time of 0.5 seconds. Following this procedure, the wound cavity was thoroughly cleaned and all bleeding stopped before the fascia and scalp, were sutured closed. In all experiments, the rats' group identity was coded with regard to surgery and treatment to prevent experimenter bias during behavioral testing and later histological examination.
These experimental solutions were then diluted 1:1 with sterile water for a final concentration of HBC of 22.5%.
Sprague-Dawley male rats, approximately 90 days of age at the time of surgery, were used. Rats were housed in individual cages, with a 12:12 light:dark cycle. Food and water were provided ad libitum throughout the experiment. Control rats received sham surgeries and the rest received medial frontal cortical contusions as described in the general methods. The sham-operated controls were given vehicle (cyclodextrin). […] Treatment began one hour after the contusion was produced. […] Subsequently, a second subcutaneous injection 6 hours post-injury for absorption that is more gradual. […]
At 2, 24, and 72 hours the rats were anesthetized, decapitated, and their brains removed quickly from the cranial cavity. […] The brain was placed on a pre-weighed dish and the total weight of the sample was measured. […]

[2] = test system: rats with bilateral frontal cortical contusions; assay: Morris water maze after MFC contusion, Example 2; format: in vivo, rat; details: 4 mg/kg
Protocol: Contusions to the MFC were carried out as described in Example 1.
(§1) These injections started at one hour post-injury with an intraperitoneal injection, and then were repeated at 6, 24, 48, 72, 96, and 120 hours post-injury with subcutaneous injections.
The Morris Water Maize (MWM) consisted of a circular tank with a diameter of 133 cm filled with opaque water (20±1° C.; non-toxic Artista™ nontoxic white tempura paint) to a depth of 64 cm (23 cm from top of tank). A platform (11 cm×11 cm) was submerged to a depth of 2 cm and placed approximately 28 cm from the wall of the pool in the center of the northeast quadrant. The position of the platform will remain constant throughout the experiment. MWM testing began seven days after surgery. Each animal was tested for a total of 10 days (2 trials per day) in two 5-day blocks. At the start of each trial, the experimenter placed a rat into the pool at one of four starting positions, and at the same time, activate the computer-interfaced camera tracking system. Each rat was allowed to swim in the pool until it reached the platform or until 90 seconds has passed. […] The performance of each rat was measured in terms of latency to platform, length of path to platform, and swim strategy, i.e., percent of total time spent in the outer versus inner annuli.

[3] = test system: rats with bilateral frontal cortical contusions; assay: Histological count of ChAT positive cells in nucleus basalis magnocellularis, motor behavior and cavity size, Example 2; format: in vivo, rat; details: 4 mg/kg
Protocol: A single asterisk (*) indicates a significant difference from sham, a double asterisk (**) indicates a significant difference from both sham and lesion controls.
as §1
To determine the relationship between neural cell numbers and behavior, the number of neurons and glia were counted to determine the correlative relationship between the survival of these cells and behavioral performance (FIG. 3).

[4] = test system: GABA receptor; details: independent of the benzodiazepines; cited from earlier work
[5] = test system: sigma receptor; details: cited from earlier work
[6] = test system: cell death; details: by attenuating release of inflammatory cytokines; cited from earlier work

| SMILES | cerebral edema [1] | Morris water maze performance vs injured rats given vehicle ([2]; injections from 1 h to 120 h post-injury, last three blocks of testing, p<0.05) | performance scores on the spatial learning task vs other groups ([2]; all days of testing) | necrotic cavity size [3] | spontaneous motor behavior [3] | number of ChAT positive cells in the nucleus basalis magnocellularis ([3]; vs untreated controls) | modulation of the GABA receptor [4] | activity at the sigma receptor [5] | cell death in vitro [6] |
| --- | --- | --- | --- | --- | --- | --- | --- | --- | --- |
| CC(=O)[C@H]1CC[C@H]2[C@@H]3CC[C@H]4C[C@H](O)CC[C@]4(C)[C@H]3CC[C@]12C [allopregnanolone, allopregnan-3α, or 3β-ol-20-one] | significantly reduced cerebral edema | improved performance on an acquisition task; also recorded: significantly outperformed the injured rats given vehicle | better performance scores on the spatial learning task than the other groups | no differences | no differences | more remaining viable neurons in this structure than untreated controls | positive modulators of the GABA receptor | antagonists at the sigma receptor | prevent cell death in vitro |
| CC(=O)[C@H]1CC[C@H]2[C@@H]3CC[C@@H]4C[C@@H](O)CC[C@]4(C)[C@H]3CC[C@]12C [epipregnanolone] | intermediate between injured controls and the allopregnanolone-treated injured rats | – | – | – | – | – | positive modulators of the GABA receptor | antagonists at the sigma receptor | – |
